Source: US10085955B2, “Methods and compositions for treatment of demyelinating diseases” (Pathologica LLC, priority 2013, dated 2018)

Key:
[1] = system: PGE2 production in carrageenan air pouch; assay: Carrageenan air pouch model; type: in vivo, Lewis rats
Description: Injection of air subcutaneously will induce the formation of a connective tissue cavity lined with cells that resemble and function like a synovial lining. This method is commonly known as the Air Pouch Model and is a useful animal model of inflammation that can be generated in a relatively short period of time. The air pouch may be created by subcutaneous (SQ) injection of a volume of sterile air in the dorsal neck region. The model may be used to test the efficacy and potency of compounds such as polyamine analogues and polyamine biosynthesis inhibitors such as MGBG in reducing various cellular and biochemical indicators of inflammation when administered as an oral (PO) gavage administration. Healthy Male Lewis rats (Charles River Laboratories, Wilmington, Mass.) weighing between 175-200 g were used. […] A correction factor of 1.49 was used to account for the dihydrochloride salt/monohydrate form of MGBG. […] Air pouches were formed on the dorsum of the rats during the last 4 days of MGBG or vehicle administration prior to carrageenan injection. Briefly, rats were anesthetized with isoflurane, during which dorsal hair was removed and 20 mL of sterile air was injected subcutaneously into the intrascapular region. Pouches were allowed to develop for the next 4 days, with re-inflation (to maintain pouch volume) of pouches 1 day prior to carrageenan injection. One hour prior to carrageenan injection, animals were given their last dose of drug (MGBG, vehicle, naproxen, or dexamethasone). A 1% suspension of carrageenan (2 mL; FMC BioPolyer, Philadelphia, Pa.) suspended in saline was injected into the pouch cavity. At either 3 hours or 24 hours post-carrageenan injection, rats were euthanized by CO2 asphyxiation and 2.5 mL of PBS (Sigma Chemical, St. Louis, Mo.) was injected directly into the pouch. The pouch was opened with surgical scissors and the pouch fluid was collected using a transfer pipette. One aliquot was collected for measurement of total cell count with differential, and the other aliquot for PGE2 determination. […]

[2] = Multi-dose rat pharmacokinetic and tolerability study; type: in vivo, Sprague Dawley rats; details: for AUC0-12 / AUC0-24 / Cmax / Tmax: PO twice daily; for fold increase in mean AUCall compared to Study Day 1: repeat twice-daily PO
Method: The purpose of this study was to determine the pharmacokinetic (PK) properties and tolerability of MGBG in rats. Additionally, recovery from any toxic effects was assessed after a seven day non-dosing period.
Three per group of male Sprague Dawley (CD® IGS, Charles River) aged 7-9 weeks and weighing 222.7-252.0 g were administered by oral (PO) gavage, twice daily, at 10, 20, or 30 mg/kg/dose (20, 40, or 60 mg/kg/day) for seven consecutive days. A washout period of seven days followed. Collection of approximately 200 μL of whole blood was collected from the tail vein of all animals in Groups 5, 6, and 7 were bled at six (Day 1), seven (Day 7), or one (Days 9 through 15) time point(s), respectively. Whole blood samples were collected in a lithium heparin microtainer and processed to plasma by centrifugation. Plasma was frozen at −70° C. Pharmacokinetic analyses were performed on the individual animal plasma concentration versus time data for MGBG using WinNonlin (linear trapezoidal rule for AUC calculations). Nominal dose values and sampling times were used for calculations. For Study Day 7, the reported values for MGBG concentrations at time zero were used in the calculations of AUC. Study Day 1 disposition parameters were not reported due to insufficient terminal phase data to adequately characterize these parameters.

## CC(/C=N/NC(=N)N)=N\NC(=N)N [MGBG, 1,1′ [methylethanediylidene]dinitrilodiguanidine]
[1]; rat pouch fluid, 3 or 24 hours post-carrageenan, naproxen 10 mg/kg, dexamethasone 1 mg/kg
  production of PGE2 (inflammatory and basal levels): selectively inhibited peak inflammatory production of PGE2, without affecting basal levels
[1]; rats, MGBG 1-60 mg/kg PO once daily 6 days
  efficacy, changes relative to control indicative of reduced inflammation: efficacious
[2]; 60 mg/kg/day dose group, not thought to be adverse
  hematology differences versus control group: lower reticulocyte count and percentage
[2]; PO twice daily 7 days, 20-60 mg/kg/day
  gross or microscopic lesions at terminal sacrifice: No gross or microscopic lesions
[2]; 20 mg/kg/day, Day 7
  AUC0-12: 1030 ng·h/mL
  AUC0-24: 2190 ng·h/mL
  Cmax: 117 ng/mL
  Tmax: 14 h
[2]; 40 mg/kg/day, Day 7
  AUC0-12: 1800 ng·h/mL
  AUC0-24: 3690 ng·h/mL
  Cmax: 194 ng/mL
  Tmax: 9.33 h
[2]; 60 mg/kg/day, Day 1
  Tmax: 3.33 h
[2]; 60 mg/kg/day, Day 7
  AUC0-12: 3130 ng·h/mL
  AUC0-24: 6040 ng·h/mL
  Cmax: 337 ng/mL
  Tmax: 7.33 h
[2]; 20 mg/kg/day
  fold increase in mean AUCall compared to Study Day 1: 3.77 fold
[2]; 40 mg/kg/day
  fold increase in mean AUCall compared to Study Day 1: 4.03 fold
[2]; 60 mg/kg/day
  fold increase in mean AUCall compared to Study Day 1: 3.68 fold
